Values of other authors as cited in patent US8410124B2, “Deuterated etravirine” (Concert Pharmaceuticals Inc., priority 2007, dated 2013).

How the values were obtained:
[1] = over a 2 hour period
[2] = humans

degradation in human liver microsomes [1]: 15%
excreted largely intact in the feces ([2]; feces): > 85%
excreted largely intact in the urine ([2]; urine): < 1%
Compound: Cc1cc(C#N)cc(C)c1Oc1nc(Nc2ccc(C#N)cc2)nc(N)c1Br [etravirine, 4-(6-amino-5-bromo-2-(4-cyanophenylamino)pyrimidin-4-yloxy)-3,5-dimethylbenzonitrile]
most common adverse effects of the combined regimen (healthy volunteers, etravirine in combination with lopinavir/ritonavir): diarrhea and headache
safety and tolerability profile (phase IIb trials with treatment-experienced patients): generally comparable with placebo
mild side effects (trials with HIV-1-infected patients dosed with etravirine): diarrhea, headache, abdominal pain, acute tonsillitis, flatulence, gastroenteritis, hot flushes, insomnia, intercostal pain, pruritus, somnolence, tachycardia and vomiting
